Entries after “also recorded” stand apart in the source; their conditions may differ. Marks after values point to notes of the source that are not given here.
Experiments:
[1] = system: ovariectomy (OVX) rats; assay: Change in weight of organs in ovariectomized rats; assay type: in vivo, Sprague-Dawley rats
Experimental: 12 week old female SPF Sprague-Dawley rats (body weight: 250 g; n=15) were purchased from the Korean Laboratory Animals Center (Eumseong, South Korea). Breeding conditions were as follows: temperature, 23+3° C.; relative humidity, 55+10%; lighting time, 12 hours (08:00-20:00); ventilation frequency, 10-20 changes/h; illumination, 150-300 lux. The temperature and humidity were measured using a hygrometer in units of time, and there were no variables that could affect the experimental results. The animals were fed normal rodent feed and purified water.
The experimental animals were randomly divided into three groups. After adaptation, bilateral laparotomy (sham) or bilateral ovariectomy (OVX) was performed on the rats.
Changes in the body weight and feeding and water intake were measured at a regular interval.

[2] = system: ovariectomy (OVX) rats; assay: Hematological analysis in ovariectomized rats; assay type: in vivo, Sprague-Dawley rats
Experimental: Blood samples were collected at 12 weeks post-surgery.
Hematological experiments were performed using T-540 Coulter Counter (Coulter Electronics Inc., Hialeah, USA) and ADVIA 120 Hematology System (Bayer Healthcare LLC, Tarrytown, USA). White blood cells (WBCs), differential leukocyte counts, hematocrit, red blood cells (RBCs), mean corpuscular volume (MCV), mean corpuscular hemoglobin (MCH), mean corpuscular hemoglobin concentration (MCHC), and platelet count were subjected to analysis, respectively.

[3] = system: ovariectomy (OVX) rats; assay: Blood markers  (17β-estradiol, osteocalcin, CTx) in ovariectomized rats; assay type: in vivo, Sprague-Dawley rats
Experimental: Osteocalcin levels were measured using a sandwich ELISA kit (Biomedical Technologies Inc., Stoughton, USA), while CTx levels were measured using a serum RatLaps ELISA kit (IDS Inc., Fountain Hills, USA).

[4] = system: ovariectomy (OVX) rats; assay: Femur bone mineral density (DEXA), breaking force and mineral content in ovariectomized rats; assay type: in vivo, Sprague-Dawley rats; details: for BMD: femur
Experimental: Using dual energy X-ray absorptionmetry (DEXA; Prodigy Advance, Donga imaging, Korea), the bone mineral density (BMD) of the femur was measured. Immediately after BMD measurement, the femur was subjected to mechanical test at room temperature using a material testing machine (MZ500D; Maruto, Tokyo, Japan). For stabilization, the mid-diaphysis of the thigh was placed on two supports at an interval of 4 mm on a test device. A three-point bending test was performed in front and rear directions at the midpoint between the two supports. Breaking force was measured using software (CTR win, Ver. 1.05) to measure bone strength. […] Then, the thigh was placed at 800° C. for 16 hours, and the weight of the ash was measured. […] Calcium and phosphorus contents were measured using an atomic absorption spectrophotometer (PerkinElmer; A Analyst 100 Spectrophotometer, Boston, USA).

[5] = system: human colo 205 rectal cancer cells; assay: Rectal cancer animal experiment, Colo205 xenograft model; assay type: in vivo
Experimental: Using human colo 205 rectal cancer cells as xenograft model, clinical experiments were performed with adenocarcinoma nude mice for 28 days. In this regard, the experimental method and usage are shown in Table 8 (Protocol Design for the Colo205-e347 Study) and Table 9 (Final treatment regimen at completion of the study) below.

[6] = system: multiple myeloma (MM); assay: Multiple myeloma animal experiment; assay type: in vivo, 5TGM1-grafted NSG mice
[7] = system: ovariectomy (OVX) rats; assay: Blood markers  (17β-estradiol, osteocalcin, CTx) in ovariectomized rats; assay type: in vivo, Sprague-Dawley rats; remark: listed apart in the source
[8] = system: ovariectomy (OVX) rats; assay: Blood biochemical analysis in ovariectomized rats
Experimental: Blood samples were collected at 12 weeks post-surgery. Animals were deprived of food for 16 hours and then anesthetized prior to blood sampling (Zoletile 50, Virbac, Korea). 0.5 mL of blood was collected from the abdominal artery and stored at 4° C. in a refrigerator.
A portion of the blood was used for hematological experiments, and the remaining blood was centrifuged at 3,000 rpm for 10 minutes to obtain serum. The serum was used for blood biochemical experiments and bone metabolism markers 17β-estradiol, osteocalcin and CTx analysis.
The parameters measured for blood biochemical analysis (Ciba-Corning 644 Na/K/Cl Analyzer, Ciba-Corning, Medfield, USA) were as follows: alanine aminotransferase (ALT), aspartate aminotransferase (AST), alkaline phosphatase (ALP), blood urea nitrogen (BUN), glucose, triglycerides (TG), total cholesterol (TC), high-density lipoproteins (HDL), low-density lipoproteins (LDL), total proteins (TP), albumin, calcium and phosphorus.

[9] = OVX rats, treatment for 12 weeks after ovariectomy, mean ± SD, 5 rats
[10] = blood at 12 weeks post-surgery, mean ± SD, 5 rats
[11] = OVX rats, increased after ovariectomy
[12] = femur ash, reduced by ovariectomy
[13] = serum at 12 weeks post-surgery, mean ± SD, 5 rats

## Sigma Anti-bonding Molecule Calcium gluconate [SAC gluconate]
[1]; OVX rats
  weights of the organs: does not significantly affect the weights of the organs
[1]; [9]
  Adrenal gland Left weight: 0.0098 ± 0.0014 g
  Adrenal gland Right weight: 0.0098 ± 0.0014 g
  Brain weight: 0.6126 ± 0.02
  Femur Left weight: 0.3335 ± 0.02 g
  Femur Right weight: 0.3302 ± 0.02 g
  Kidney: Left weight: 0.2977 ± 0.01 g
  Kidney: Right weight: 0.2926 ± 0.02 g
  Liver weight: 2.5220 ± 0.15 g
  Pituitary weight: 4.3 ± 1 mg
  Spleen weight: 0.2056 ± 0.02 g
  Uterus weight: 0.0524 ± 0.02 g
  Vagina weight: 0.0665 ± 0.02 g
[1]; reduced by ovariectomy
  weights of the reproductive organs (uterus and vagina): not restored
[2]; after ovariectomy
  Eosinophils: significantly increased
[2]; [10]
  Basophils: 0.03 ± 0.04 9%
  Eosinophils: 5.06 ± 2.88%
  Hematocrit: 44.94 ± 1.18%
  Lymphocytes: 73.36 ± 3.78%
  Mean corpuscular hemoglobin: 32.50 ± 1.75 pg
  Mean corpuscular hemoglobin concentration: 57.54 ± 1.76 g/dL
  Mean corpuscular volume: 54.44 ± 1.24 fL
  Monocytes: 2.60 ± 1.04%
  Neutrophils: 22.21 ± 5.19%
  Platelet: 1397.0 ± 81.27 10^3/mm^3
  Red blood cell: 8.33 ± 0.45 10^6/µL
  White blood cell: 4.94 ± 2.17 10^3/μl
[3]; [11]
  C-terminal telopeptide / CTx: also reduced; also recorded: recovered to normal levels
  osteocalcin: recovered to normal levels
[3]; serum CTx, 12 weeks after ovariectomy, mean ± SD, 5 rats
  C-terminal telopeptide: 4.340 ± 0.395^a ng/ml
[3]; serum, 12 weeks after ovariectomy, mean ± SD, 5 rats
  osteocalcin: 3.458 ± 0.254^ac ng/mL
[4]; [12]
  Phosphorus: completely recovered
  calcium: completely recovered
[4]; DEXA, treatment for 12 weeks after ovariectomy, mean ± SD, 5 rats
  BMD: 0.238 ± 0.011 g/cm²
[4]; reduced by ovariectomy
  BMD: completely recovered; also recorded: improved BMD
[4]; three-point bending test, reduced by ovariectomy
  femoral breaking force: completely recovered
[5]; Colo205 xenograft mice
  tumor growth (FIG. 4): tumor growth was slowed down after 12 days
  tumor growth and size of tumor (FIG. 5): tumor growth became dull and a size of tumor was reduced after 2 or 3 weeks from the dose
[5]; median tumor volume, 0.83 mg/kg po, Day 28
  MTV (n) Day 28: 864 (10) mm^3
[5]; non-treatment-related deaths, 0.83 mg/kg po
  Deaths NTR: 0
[5]; percent tumor growth inhibition compared to Group 1 (vehicle), Day 28, 0.83 mg/kg po
  % TGI: 8%
[5]; treatment-related deaths, 0.83 mg/kg po
  Deaths TR: 0
[6]; 80 mg/kg orally 3 times per day, 83 versus 58 days
  extension of survival versus control: 43%
[6]; 80 mg/kg orally 3 times per day, control group survived 58 days
  survival after tumor inoculation: 83 days
[6]; text result versus control group
  tumor growth (FIG. 8): stopped or at least became dull
[7]; OVX rats
  blood 17β-estradiol reduction by ovariectomy: quite recovered
[7]; serum 17β-estradiol, 12 weeks after ovariectomy, mean ± SD, 5 rats
  Estradiol: 4.417 ± 0.347^a pg/ml
[8]; OVX rats, serum
  bone growth marker ALP: recovered to a normal level
[8]; [13]
  ALP: 108.5 ± 21.7 IU/l
  Albumin: 2.8 ± 0.1 g/dL
  BUN: 9.5 ± 2.3 mg/dL
  GOT: 158.0 ± 32.4 IU/l
  GPT: 20.4 ± 4.5 IU/l
  Glucose: 110.4 ± 8.7 mg/dL
  HDL: 22.8 ± 6.2 mg/dL
  LDL-C: 8.1 ± 4.2 mg/dL
  Phosphorus: 4.2 ± 0.3 mg/dL
  calcium: 6.8 ± 0.3 mg/dL
